From publication PMC6515314 (Molecules, 2019)
Starred links: 1 amine or outer side, 2 acyl side, 3 side chain; linkers in the order of their positions; H or OH if unused. Non-standard residues stand in square brackets, D forms with d. Residues, ends and D or L forms follow the SMILES beside them. X1 = O=C([C@H](Cc1cncn1CCCCc1cn(Cc2c(F)cccc2Oc2ccccc2)nn1)N[*:1])[*:2]; X3 = O=C([C@H](Cc1cncn1CCCCc1cn(Cc2ccc(F)c(Cl)c2)nn1)N[*:1])[*:2]; X4 = O=C([C@H](Cc1cncn1CCCCc1cn(Cc2ccc(F)cc2)nn1)N[*:1])[*:2]; X2 = O=C([C@H](Cc1cncn1CCCCc1cn(Cc2ccccc2)nn1)N[*:1])[*:2]; X5 = C#CCCCCn1cncc1C[C@H](N[*:1])C(=O)[*:2]; pT = C[C@@H](OP(=O)(O)O)[C@H](N)C(=O)O; Pra = C#CC[C@H](N)C(=O)O

What was measured:
Assay type in all cases: binding
Plk1 PBD = target: T1, Plk1 PBD (Homo sapiens, UniProt P53350); assay: Fluorescence polarization (FP) assay, isolated Plk1 PBD; conditions: for IC50: FP assay, average ± SEM
T1 construct: a plasmid encoding myc-tagged Plk1 PBD was purchased from Addgene; host or cells: HEK-293T
Method: (§1) Plasmids encoding the myc-tagged PBDs of Plk2 and Plk3 were generous gifts from Prof. […] The supernatant containing expressed protein was diluted into 8 mL of PBS (pH 7.4) containing protease/phosphatase inhibitor cocktail. This protein solution was added to a 1 mL bed of myc-agarose resin (Thermo Scientific, Waltham, MA, USA) and allowed to bind for 2 h at 4 °C with gentle rotation. The lysate was eluted and the resin was washed 4× with 4-(2-hydroxyethyl)-1-piperazineethanesulfonic acid (HEPES) buffered saline (HBS) containing 0.05% Tween-20, 1 mM dithiothreitol (DTT) and 1 mM ethylenediaminetetraacetic acid (EDTA). The bound PBD protein was then eluted with a 1 mg/mL solution of myc peptide ([…]) in HBS + 1 mM DTT and 1 mM EDTA. […] The concentration of the final protein solution was determined by absorbance at 280 nm and purity was determined by SDS-PAGE (sodium dodecyl sulfate-polyacrylamide gel electrophoresis) with Coomassie staining.
As previously reported, isolated PBD protein was diluted to a 2× working dilution in assay buffer (HEPES-buffered saline with 0.05% Tween-20, 1 mM DTT, and 1 mM EDTA). […] Inhibitors were serially diluted to generate 4× working dilutions in assay buffer containing 4% DMSO. 20 μL of 2× PBD solution was added to each well of a 384-well plate (0% binding controls received 20 μL of assay buffer). 10 μL of the 4× inhibitor solution (or DMSO blank) was added to corresponding wells and allowed to pre-incubate at RT for 30 min with shaking. The following sequences were utilized as fluorescent probes: 5CF-GPMQSpTPLNG-NH2 for Plk1 PBD; 5CF-GPMQTSpTPKNG-NH2 for Plk2 PBD and 5CF-PLATSpTPKNG-NH2 for Plk3 PBD [10]. Fluorescent probes were diluted to 40 nM (4×) in assay buffer and then 10 μL was added to each well. The plate was allowed to equilibrate at room temperature for (30 min) with shaking. […] The FP values were obtained in triplicate and normalized to 100% (no inhibitor) and 0% binding (no protein) controls. Normalized values were plotted versus concentration and analyzed using non-linear regression in GraphPad Prism 8 (GraphPad Software, San Diego, CA, USA) [log(inhibitor) vs. response-variable slope (four parameter) model].

Plk2 PBD = assay: Fluorescence polarization (FP) assay, isolated Plk2 PBD; conditions: average ± SEM
Method: as §1
(§2) As previously reported, isolated PBD protein was diluted to a 2× working dilution in assay buffer (HEPES-buffered saline with 0.05% Tween-20, 1 mM DTT, and 1 mM EDTA). […] Normalized values were plotted versus concentration and analyzed using non-linear regression in GraphPad Prism 8 (GraphPad Software, San Diego, CA, USA) [log(inhibitor) vs. response-variable slope (four parameter) model].

Plk3 PBD = target: T2, Plk3 PBD (Homo sapiens, UniProt Q9H4B4); assay: Fluorescence polarization (FP) assay, isolated Plk3 PBD; conditions: average ± SEM
T2 sequence (Q9H4B4 418-646 limits assumed): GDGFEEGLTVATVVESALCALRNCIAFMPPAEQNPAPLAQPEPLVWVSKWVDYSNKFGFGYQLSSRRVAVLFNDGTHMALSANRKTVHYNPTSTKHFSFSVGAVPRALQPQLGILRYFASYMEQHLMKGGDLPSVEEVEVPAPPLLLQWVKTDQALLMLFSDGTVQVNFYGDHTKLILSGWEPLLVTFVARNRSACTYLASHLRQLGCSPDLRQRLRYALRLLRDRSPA
Method: as §1, §2

full-length Plk1 = target: T3, full-length Plk1 (Homo sapiens, UniProt P53350); assay: ELISA assay using full-length Plk1
T3 construct: a plasmid encoding myc-tagged full-length Plk1 (Addgene, Plasmid #41160); host or cells: HEK-293T (crude cytosolic lysate, not purified)
T3 sequence (P53350 whole entry): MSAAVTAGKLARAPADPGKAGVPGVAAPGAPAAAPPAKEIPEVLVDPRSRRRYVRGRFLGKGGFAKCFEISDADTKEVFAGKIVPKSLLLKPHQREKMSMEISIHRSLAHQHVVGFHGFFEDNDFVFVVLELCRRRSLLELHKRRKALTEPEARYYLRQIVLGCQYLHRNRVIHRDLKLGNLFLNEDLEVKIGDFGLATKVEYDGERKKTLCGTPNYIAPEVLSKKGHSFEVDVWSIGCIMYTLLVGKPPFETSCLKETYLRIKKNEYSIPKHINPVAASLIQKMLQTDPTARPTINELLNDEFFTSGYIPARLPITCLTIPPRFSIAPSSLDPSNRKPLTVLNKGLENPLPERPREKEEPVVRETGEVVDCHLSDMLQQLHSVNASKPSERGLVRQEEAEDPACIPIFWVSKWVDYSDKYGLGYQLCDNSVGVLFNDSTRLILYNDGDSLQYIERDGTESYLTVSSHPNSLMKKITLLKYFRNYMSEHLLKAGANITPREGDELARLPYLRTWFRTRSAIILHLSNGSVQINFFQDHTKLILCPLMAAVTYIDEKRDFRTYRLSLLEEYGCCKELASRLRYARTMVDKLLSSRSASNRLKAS
Method: Following 48 h expression, cells were harvested, lysed in buffer (PBS, pH 7.4 with 0.5% NP-40 and protease/phosphatase inhibitor cocktail) using freeze/thaw cycles (3×) and centrifuged at 10,000× g for 10 min at 4 °C. The supernatant was removed to provide a crude cytosolic lysate containing overexpressed, myc-tagged Plk1 (total protein concentration determined by bicinchoninic acid (BCA) assay).
As previously reported [25, 26, 50] a biotinylated phosphopeptide (sequence: Biotin-Ahx-PMQS(pT)PLN-NH2) was diluted to 1 µM (from a 2 mM DMSO stock solution) in PBS (pH 7.4) and loaded onto the wells of a 96-well Neutravidin-coated plate (Pierce Biotechnology, ThermoFisher Scientific, Waltham, MA, USA) at 100 µL per well for 1 h (background control contained no biotinylated peptide). The wells were washed once with 150 µL PBST (PBS, pH 7.4 + 0.05% Tween-20), and then 100 µL of 1% BSA in PBS (pH 7.4) (blocking buffer) was added for 1 h. A cytosolic lysate-containing transiently expressed myc-tagged Plk1 protein was diluted to 300 µg/mL in PBS (pH 7.4) containing protease/phosphatase inhibitors (Pierce Biotechnology), mixed with competitive inhibitor (from a 10× stock in ~4% DMSO/PBS), and allowed to pre-incubate for 1 h (100 µL per well in a 96-well plate, 30 µg total protein). The blocked ELISA plate was washed 2× with PBST (PBS, pH 7.4 + 0.05% Tween-20) (150 µL) and the pre-incubated lysates were added to the plate and incubated (1 h). […] The wells were then washed 5× with PBST (150 µL) and incubated with Turbo TMB (3,3′,5,5′-tetramethyl benzidine substrate)-ELISA solution (Pierce Biotechnology) until the desired absorbance was reached (5–10 min). The reaction was quenched by the addition of 2 N aqueous H2SO4 and the absorbance was measured at 450 nm using a BioTek Synergy 2 96-well plate reader. Absorbance was plotted versus concentration (logM) and fit to a non-linear regression analysis using GraphPad Prism 8 software [model: log(inhibitor) vs. response-variable slope (four parameters)].

T1 sequence (P53350 326-603 limits assumed): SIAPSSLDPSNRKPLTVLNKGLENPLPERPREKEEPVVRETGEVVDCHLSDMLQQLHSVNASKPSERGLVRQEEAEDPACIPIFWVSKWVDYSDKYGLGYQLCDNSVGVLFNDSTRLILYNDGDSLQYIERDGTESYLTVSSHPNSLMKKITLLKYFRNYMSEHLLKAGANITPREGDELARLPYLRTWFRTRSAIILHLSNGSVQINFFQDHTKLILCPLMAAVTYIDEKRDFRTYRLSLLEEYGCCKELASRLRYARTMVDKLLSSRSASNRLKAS

CC(=O)N1CCC[C@H]1C(=O)N[C@@H](CC(C)C)C(=O)N[C@@H](Cc1cncn1CCCCc1cn(Cc2ccccc2)nn1)C(=O)N[C@@H](CO)C(=O)N[C@H](C(N)=O)[C@@H](C)OP(=O)(O)O [Peptide 3a] (Ac-PL[X2]S[pT]-NH2)
relative loss of Plk1 PBD-binding affinity versus peptide 2a (Plk1 PBD; FP): ~8 fold
IC50 (Plk1 PBD): 110 ± 6.6 nM

CC(=O)N1CCC[C@H]1C(=O)N[C@@H](CC(C)C)C(=O)N[C@@H](Cc1cncn1CCCCc1cn(Cc2ccc(F)cc2)nn1)C(=O)N[C@@H](CO)C(=O)N[C@H](C(N)=O)[C@@H](C)OP(=O)(O)O [Peptide 3b] (Ac-PL[X4]S[pT]-NH2)
IC50 (Plk1 PBD): 100 ± 19 nM

CC(=O)N1CCC[C@H]1C(=O)N[C@@H](CC(C)C)C(=O)N[C@@H](Cc1cncn1CCCCc1cn(Cc2ccc(F)c(Cl)c2)nn1)C(=O)N[C@@H](CO)C(=O)N[C@H](C(N)=O)[C@@H](C)OP(=O)(O)O [Peptide 3c] (Ac-PL[X3]S[pT]-NH2)
IC50 (Plk1 PBD): 130 ± 9.8 nM

CC(=O)N1CCC[C@H]1C(=O)N[C@@H](CC(C)C)C(=O)N[C@@H](Cc1cncn1CCCCc1cn(Cc2c(F)cccc2Oc2ccccc2)nn1)C(=O)N[C@@H](CO)C(=O)N[C@H](C(N)=O)[C@@H](C)OP(=O)(O)O [Peptide 3d] (Ac-PL[X1]S[pT]-NH2)
IC50 (Plk2 PBD): 5900 ± 420 nM
IC50 (Plk3 PBD): 9900 ± 2200 nM
IC50 (Plk1 PBD): 25 ± 1.6 nM
IC50 (full-length Plk1; ELISA, myc-tagged full-length Plk1 lysate, ± SEM, read-out: IC50 (nM) against full-length Plk1): 12000 ± 2100 nM
Fold-change relative to isolated PBD value (full-length Plk1; full-length Plk1 ELISA IC50 vs isolated PBD FP IC50): 480 ×
potency reduction in the full-length assay relative to the isolated PBD assay (full-length Plk1; full-length Plk1 ELISA vs isolated PBD FP): 480 fold

C#CCCCCn1cncc1C[C@H](NC(=O)[C@H](CC(C)C)NC(=O)[C@@H]1CCCN1C(C)=O)C(=O)N[C@@H](CO)C(=O)N[C@H](C(N)=O)[C@@H](C)OP(=O)(O)O [Peptide 13] (Ac-PL[X5]S[pT]-NH2)
IC50 (Plk1 PBD): 1100 ± 45 nM

C#CC[C@H](NC(=O)[C@H](CC(C)C)NC(=O)[C@@H]1CCCN1C(C)=O)C(=O)N[C@@H](CO)C(=O)N[C@H](C(N)=O)[C@@H](C)OP(=O)(O)O [Peptide 17] (Ac-PL[Pra]S[pT]-NH2)
loss of Plk1 PBD-binding affinity compared with parent peptide 1 (Plk1 PBD; FP): ~2 fold
IC50 (Plk1 PBD): 1000 ± 140 nM
